In US20250320198A1, “SALT OF ENDOTHELIN A (ETA) RECEPTOR ANTAGONIST COMPOUND, AND PREPARATION METHOD THEREFOR AND MEDICAL USE THEREOF” (SHENZHEN SALUBRIS PHARMACEUTICALS CO., LTD, priority 2022, published 2025):

Tests used:
[1] = Research on compound microsome: prototype remaining and transformation to Atrasentan in human liver microsomes (+NADPH); assay type: in vitro ADME; conditions: human liver microsome (+NADPH), 37° C.
Method: Human liver microsomes were all purchased from Rild Liver Disease Research (Shanghai) Co., Ltd.
Reagents: dimethyl sulfoxide (DMSO), acetonitrile, formic acid, and propranolol (internal standard) are all commercially available.
Instrument: Thermo Fisher Scientific LC-MS (U300 UPLC, TSQ QUANTUMN ULTRA triple quadrupole mass spectrometer).
A certain amount of compound was precisely weighed and dissolved in DMSO to prepare a 10 mM stock solution, and the stock solution was diluted with a diluent (ACN:H2O=1:1) to a 100 μM working solution, and then diluted with a 0.1 M potassium phosphate buffer solution to a 3 μM administration solution for later use. 75 μL of liver microsomes were taken and added into 925 μL of a 0.1 M potassium phosphate buffer solution to be mixed uniformly to obtain a 1.5 mg/mL liver microsome suspension, and the liver microsome suspension was pre-incubated at 37° C. for 10 minutes. Preparation at 0 o'clock: 15 μL of the above liver microsome suspension was taken and added into a 6 mM NADPH solution, 150 μL of a propranolol acetonitrile solution was added immediately for precipitation, and then 15 μL of the above administration solution was added and mixed uniformly for later use. Preparation of samples at 20 minutes and 60 minutes: 15 μL of the administration solution was taken, 15 μL of the liver microsome suspension and 15 μL of the 6 mM NADPH solution were added and mixed uniformly, and a mixture was incubated at 37° C. for 20 minutes and 60 minutes, respectively. The preparation of the above samples was carried out using dual-pore parallel operation. When the above samples are incubated to the relevant time point, 150 μL of the propranolol acetonitrile solution was added to terminate the reaction. All the above samples were centrifuged at 4000 rpm for 5 minutes, and 100 μL of a supernatant was taken, added into 100 μL of ultrapure water and mixed uniformly for LC-MS/MS analysis. LC-MS/MS detection conditions are as follows:
Chromatographic column: Waters ACQUITY™ PREMIER HSS T3, 50*2.1 mm, 1.8 μm.
Mobile phase: water (0.1% formic acid)—acetonitrile. Perform gradient elution according to the table below.
An initial 0 o'clock was taken as 100%, a relative residual content of the drug at each time point was calculated, and each time point of Atrasentan was taken as 100% to calculate the relative amount of transformation of the compound in the embodiment to Atrasentan.

[2] = Pharmacokinetic study of compound in rats (Embodiment 14), intragastric administration; assay type: in vivo; conditions: SD rats
Text: SD rats: male, 200-300 g, purchased from Beijing Vital River Laboratory Animal Technology Co., Ltd.
Reagents: dimethyl sulfoxide (DMSO), polyethylene glycol 400 (PEG-400), normal saline, heparin, acetonitrile, formic acid, and propranolol (internal standard) are all commercially available.
Instrument: Thermo Fisher Scientific LC-MS/MS (U300 UPLC, TSQ QUANTUMN ULTRA triple quadrupole mass spectrometer).
The compound was weighed and dissolved in a DMSO-PEG-400-normal saline (5:60:35, v/v/v) system. After intragastric administration to rats, 200 μL of venous blood was collected in a sodium-fluoride heparinized EP tube at 15 minutes, 30 minutes, 1 hour, 2 hours, 5 hours, 7 hours, and 24 hours after administration and centrifuged at 12000 rpm for 2 minutes. Plasma was taken and frozen and preserved at −80° C. for testing. A certain amount of samples for test was precisely weighed and dissolved in DMSO to 2 mg/mL as a stock solution. An appropriate amount of compound stock solution was accurately sucked, and diluted by adding acetonitrile to prepare a standard series solution. 20 μL of each of the above standard series solution was accurately sucked, 180 μL of blank plasma was added, and vortex mixing was performed to prepare plasma samples equivalent to plasma concentrations of 1 ng/mL, 3 ng/mL, 5 ng/mL, 10 ng/mL, 30 ng/mL, 100 ng/mL, 300 ng/mL, 1000 ng/mL, and 3000 ng/mL. […]

[3] = Study on hygroscopicity by dynamic vapor sorption (DVS); assay type: physicochemical
Method: Hygroscopicity of sulphate, phosphate, hydrochloride, and oxalate was evaluated using a dynamic vapor sorption (DVS). The test collected percentage changes in mass of samples under a constant temperature condition of 25° C. with changes in humidity.

[4] = Study on stability of salts (chemical stability by HPLC); assay type: physicochemical

Prototype remaining quantity (%) Mean ([1]; time 0 min (taken as 100%)) [%]	Prototype remaining quantity (%) Mean ([1]; time 20 min) [%]	Prototype remaining quantity (%) Mean ([1]; time 60 min) [%]	Absorption after intragastric administration compared with Atrasentan (in words) [2]	Hygroscopicity (in words) ([3]; 25° C.)	Vapor sorption ([3]; 25° C./80% RH) [%]	Stability (in words) ([4]; 25° C./60% RH and 40° C./75% RH, one week)	Purity (area %) ([4]; 25° C./60% RH, one week)	Purity (area %) ([4]; 40° C./75% RH, one week)	Purity (area %) ([4]; Start)	SMILES	Exposure level in rats compared with the same dosage of Atrasentan (in words) [2]
100.0	0.10	0.47	not as good as that of Atrasentan							CCCCN(CCCC)C(=O)CN1C[C@H](c2ccc3c(c2)OCO3)[C@@H](C(=O)OC(C)OC(=O)OC2CC2)[C@@H]1c1ccc(OC)cc1 (stereo partly drawn) [Compound 7, 1-[(cyclopropoxycarbonyl)oxy]ethyl-(2R,3R,4S)-4-(benzo[d][1,3]dioxolane-5-yl)-1-[2-(dibutylamino)-2-oxoethyl]-2-(4-methoxyphenyl)pyrrolidine-3-carboxylate]	significantly lower than that of the same dosage of Atrasentan
				lower hygroscopicity	1.52	good stability	98.81	95.49	99.29	CCCCN(CCCC)C(=O)CN1C[C@H](c2ccc3c(c2)OCO3)[C@@H](C(=O)OC(C)OC(=O)OC(C)C)[C@@H]1c1ccc(OC)cc1 (some centres unmarked) [Phosphate]	
